ChEMBL document CHEMBL1201862, “PubChem BioAssay data set” (2004)
The source made the active and inactive calls.

Assays:
[1] = molecular target: T1, Endoribonuclease toxin MazF (Escherichia coli K-12, UniProt P0AE70); assay: MazF toxin RNase activators, dose response, biochemical, fluorescence, single-stranded RNA substrate, uHTS hits (AID 588481); format: functional
T1 sequence (P0AE70 whole entry): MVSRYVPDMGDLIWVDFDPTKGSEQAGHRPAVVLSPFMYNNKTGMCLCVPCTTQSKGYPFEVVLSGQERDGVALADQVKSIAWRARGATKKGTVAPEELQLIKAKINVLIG

[2] = microbe, parasite or virus in culture; format: functional; conditions: Mycobacterium tuberculosis
[3] = molecular target: T1, Endoribonuclease toxin MazF; assay: fluorescent RNA oligo signal without MazF, dose response, counter-screen for MazEF activator project, biochemical, fluorescence, single-stranded RNase substrate (AID 588502); format: functional
Genome polyprotein = Genome polyprotein (dengue virus type 2, UniProt P29990); assay: Dengue-2 NS5 methyltransferase inhibitors, primary screen, biochemical, confirmation dose response (AID 588689); format: functional
Genome polyprotein, sequence (P29990 2492-3391 limits assumed): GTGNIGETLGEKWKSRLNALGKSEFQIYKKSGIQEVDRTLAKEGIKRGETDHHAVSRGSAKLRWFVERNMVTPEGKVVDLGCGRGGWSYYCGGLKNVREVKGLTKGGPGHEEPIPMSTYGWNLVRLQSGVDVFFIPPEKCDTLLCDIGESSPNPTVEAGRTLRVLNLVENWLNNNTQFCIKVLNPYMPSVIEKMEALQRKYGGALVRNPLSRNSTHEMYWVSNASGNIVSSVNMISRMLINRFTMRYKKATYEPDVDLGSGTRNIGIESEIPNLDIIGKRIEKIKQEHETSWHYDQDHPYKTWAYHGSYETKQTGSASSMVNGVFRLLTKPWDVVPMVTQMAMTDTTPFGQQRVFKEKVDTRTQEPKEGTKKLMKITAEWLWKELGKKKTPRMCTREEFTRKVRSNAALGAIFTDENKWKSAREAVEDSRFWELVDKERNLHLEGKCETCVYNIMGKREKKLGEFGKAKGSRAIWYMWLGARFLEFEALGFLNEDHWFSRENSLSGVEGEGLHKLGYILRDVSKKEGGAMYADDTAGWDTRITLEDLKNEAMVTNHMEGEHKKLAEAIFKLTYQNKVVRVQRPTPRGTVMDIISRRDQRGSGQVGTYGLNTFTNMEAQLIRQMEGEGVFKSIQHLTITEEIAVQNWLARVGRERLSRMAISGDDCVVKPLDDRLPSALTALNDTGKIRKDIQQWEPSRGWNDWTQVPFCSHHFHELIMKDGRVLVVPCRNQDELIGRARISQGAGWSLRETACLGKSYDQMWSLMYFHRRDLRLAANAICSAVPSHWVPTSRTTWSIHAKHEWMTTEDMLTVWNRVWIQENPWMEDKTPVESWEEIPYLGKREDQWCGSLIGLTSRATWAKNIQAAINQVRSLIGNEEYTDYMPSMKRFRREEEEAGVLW

[4] = molecular target: T2, Apoptotic protease-activating factor 1 (Homo sapiens, UniProt O14727); format: functional
T2 sequence (O14727 whole entry): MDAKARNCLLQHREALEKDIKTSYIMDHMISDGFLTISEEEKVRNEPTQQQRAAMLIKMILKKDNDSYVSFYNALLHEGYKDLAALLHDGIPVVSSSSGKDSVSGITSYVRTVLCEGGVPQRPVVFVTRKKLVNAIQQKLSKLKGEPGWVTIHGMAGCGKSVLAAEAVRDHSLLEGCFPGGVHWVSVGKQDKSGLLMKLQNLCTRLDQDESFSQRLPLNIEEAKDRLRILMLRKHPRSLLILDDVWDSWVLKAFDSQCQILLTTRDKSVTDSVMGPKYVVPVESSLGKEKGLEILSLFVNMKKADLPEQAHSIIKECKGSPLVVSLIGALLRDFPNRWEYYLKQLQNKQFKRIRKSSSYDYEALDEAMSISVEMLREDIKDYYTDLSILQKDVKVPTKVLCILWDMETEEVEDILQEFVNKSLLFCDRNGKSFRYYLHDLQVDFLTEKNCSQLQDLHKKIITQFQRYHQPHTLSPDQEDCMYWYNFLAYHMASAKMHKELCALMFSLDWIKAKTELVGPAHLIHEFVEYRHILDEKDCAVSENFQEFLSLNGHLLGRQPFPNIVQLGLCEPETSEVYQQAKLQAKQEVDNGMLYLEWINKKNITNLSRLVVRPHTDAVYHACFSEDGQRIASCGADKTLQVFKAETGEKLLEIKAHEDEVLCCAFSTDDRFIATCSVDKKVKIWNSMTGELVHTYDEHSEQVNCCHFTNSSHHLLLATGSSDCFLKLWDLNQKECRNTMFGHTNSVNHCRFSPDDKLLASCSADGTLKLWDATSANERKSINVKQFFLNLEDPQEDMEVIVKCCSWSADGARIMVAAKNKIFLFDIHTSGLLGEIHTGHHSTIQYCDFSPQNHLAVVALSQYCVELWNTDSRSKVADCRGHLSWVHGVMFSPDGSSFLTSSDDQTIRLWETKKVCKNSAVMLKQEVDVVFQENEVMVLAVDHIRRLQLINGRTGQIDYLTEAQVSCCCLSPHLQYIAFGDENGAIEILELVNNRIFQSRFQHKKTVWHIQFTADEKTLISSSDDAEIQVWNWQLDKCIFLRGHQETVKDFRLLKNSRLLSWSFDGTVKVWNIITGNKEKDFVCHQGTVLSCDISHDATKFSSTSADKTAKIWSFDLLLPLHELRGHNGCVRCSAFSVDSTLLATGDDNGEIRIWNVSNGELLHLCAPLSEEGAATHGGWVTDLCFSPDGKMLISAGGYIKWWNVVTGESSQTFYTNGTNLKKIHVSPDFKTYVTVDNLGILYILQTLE

[5] = molecular target: T3, Zinc finger protein mex-5 (Caenorhabditis elegans, UniProt Q9XUB2); assay: MEX-5/TCR-2 RNA interaction inhibitors, dose response, biochemical, C. elegans, fluorescence polarization (AID 1960)
T3 sequence (Q9XUB2 whole entry): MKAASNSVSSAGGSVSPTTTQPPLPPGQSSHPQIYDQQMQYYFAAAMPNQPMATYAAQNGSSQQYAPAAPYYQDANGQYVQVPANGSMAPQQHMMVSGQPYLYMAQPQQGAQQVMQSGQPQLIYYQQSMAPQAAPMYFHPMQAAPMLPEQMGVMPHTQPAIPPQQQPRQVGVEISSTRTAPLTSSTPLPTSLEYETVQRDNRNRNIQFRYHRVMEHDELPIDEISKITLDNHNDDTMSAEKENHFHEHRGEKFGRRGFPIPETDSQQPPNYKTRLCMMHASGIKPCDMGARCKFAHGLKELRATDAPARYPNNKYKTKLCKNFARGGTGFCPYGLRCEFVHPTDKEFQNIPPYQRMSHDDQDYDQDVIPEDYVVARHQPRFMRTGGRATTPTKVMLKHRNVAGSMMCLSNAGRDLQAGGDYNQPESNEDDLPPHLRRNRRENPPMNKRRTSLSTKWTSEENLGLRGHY

[6] = molecular target: T4, RNA-binding protein pos-1 (Caenorhabditis elegans, UniProt G5EF15); assay: inhibitors of POS-1/mex-3 RNA binding, dose response, biochemical, fluorescence polarization (AID 1964);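 further: purified POS-1 fused to maltose binding protein made in E. coli; potency of compounds blocking POS-1 binding to fluorescent RNA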
T4 sequence (G5EF15 whole entry): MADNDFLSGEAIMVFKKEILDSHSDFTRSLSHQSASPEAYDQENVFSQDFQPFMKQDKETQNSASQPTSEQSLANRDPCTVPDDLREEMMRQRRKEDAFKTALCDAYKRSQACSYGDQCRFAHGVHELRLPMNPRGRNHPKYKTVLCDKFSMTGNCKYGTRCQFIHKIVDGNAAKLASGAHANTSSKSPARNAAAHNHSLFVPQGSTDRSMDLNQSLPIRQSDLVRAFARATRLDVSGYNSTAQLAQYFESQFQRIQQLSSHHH

Coagulation factor XII = molecular target: T5, Coagulation factor XII (Homo sapiens, UniProt P00748); format: functional;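 further: activated factor XIIa alpha cleaving a fluorogenic AMC peptide substrate; inhibitor potency from loss of enzyme activity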
T5 sequence (P00748 whole entry): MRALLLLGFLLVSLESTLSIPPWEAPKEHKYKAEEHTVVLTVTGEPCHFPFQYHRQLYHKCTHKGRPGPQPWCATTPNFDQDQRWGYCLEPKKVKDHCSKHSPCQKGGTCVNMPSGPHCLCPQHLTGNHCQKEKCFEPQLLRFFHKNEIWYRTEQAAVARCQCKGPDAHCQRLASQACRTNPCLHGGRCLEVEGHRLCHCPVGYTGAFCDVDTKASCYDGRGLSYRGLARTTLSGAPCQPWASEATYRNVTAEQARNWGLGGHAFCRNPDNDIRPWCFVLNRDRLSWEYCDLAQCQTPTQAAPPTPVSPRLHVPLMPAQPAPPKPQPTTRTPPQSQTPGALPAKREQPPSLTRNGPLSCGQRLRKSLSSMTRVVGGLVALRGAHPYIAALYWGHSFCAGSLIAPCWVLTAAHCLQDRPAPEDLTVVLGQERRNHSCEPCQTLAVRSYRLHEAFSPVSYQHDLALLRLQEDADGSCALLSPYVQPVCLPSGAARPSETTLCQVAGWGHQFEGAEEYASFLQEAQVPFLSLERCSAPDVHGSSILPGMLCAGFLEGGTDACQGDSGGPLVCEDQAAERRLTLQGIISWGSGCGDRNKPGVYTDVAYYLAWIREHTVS

[7] = molecular target: T6, Probable nicotinate-nucleotide adenylyltransferase (Staphylococcus aureus (strain N315), UniProt P65502); format: functional, Staphylococcus aureus subsp. aureus N315; conditions: read-out: IC50_Mean;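 on IC50 Mean: confirmatory dose-response retesting of NadD inhibitor hits first found in an ultra-high-throughput screen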
T6 sequence (P65502 whole entry): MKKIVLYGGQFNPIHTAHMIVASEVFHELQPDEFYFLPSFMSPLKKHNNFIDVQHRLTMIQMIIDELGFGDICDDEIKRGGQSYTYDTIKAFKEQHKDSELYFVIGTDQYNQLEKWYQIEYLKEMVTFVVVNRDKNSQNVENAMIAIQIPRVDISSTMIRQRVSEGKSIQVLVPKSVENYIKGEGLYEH

[8] = molecular target: T6, Probable nicotinate-nucleotide adenylyltransferase; format: functional, Staphylococcus aureus subsp. aureus N315
[9] = molecular target: T7, Adenosylmethionine-8-amino-7-oxononanoate aminotransferase (Mycobacterium tuberculosis, UniProt P9WQ81); assay: Mycobacterium tuberculosis BioA enzyme inhibitor Measured in Biochemical System Using Plate Reader - 2163-02_Inhibitor_Dose_CherryPick_Activity.; format: functional, Mycobacterium tuberculosis UT205
T7 sequence (P9WQ81 whole entry): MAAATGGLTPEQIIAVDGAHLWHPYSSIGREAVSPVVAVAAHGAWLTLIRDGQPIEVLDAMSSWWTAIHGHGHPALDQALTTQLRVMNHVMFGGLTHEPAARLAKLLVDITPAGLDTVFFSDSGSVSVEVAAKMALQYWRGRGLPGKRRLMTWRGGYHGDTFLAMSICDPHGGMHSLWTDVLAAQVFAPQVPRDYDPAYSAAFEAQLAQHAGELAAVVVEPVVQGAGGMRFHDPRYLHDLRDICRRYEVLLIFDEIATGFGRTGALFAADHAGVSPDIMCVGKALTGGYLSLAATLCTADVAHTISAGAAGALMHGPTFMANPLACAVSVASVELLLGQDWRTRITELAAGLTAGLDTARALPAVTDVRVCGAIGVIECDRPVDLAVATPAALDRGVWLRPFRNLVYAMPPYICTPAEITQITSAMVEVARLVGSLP

[10] = molecular target: T8, High affinity choline transporter 1 (Homo sapiens, UniProt Q9GZV3); assay: CHT inhibitors, dose response, cell-based, 5-point CRC, membrane potential dye (AID 504840); format: functional
T8 sequence (Q9GZV3 whole entry): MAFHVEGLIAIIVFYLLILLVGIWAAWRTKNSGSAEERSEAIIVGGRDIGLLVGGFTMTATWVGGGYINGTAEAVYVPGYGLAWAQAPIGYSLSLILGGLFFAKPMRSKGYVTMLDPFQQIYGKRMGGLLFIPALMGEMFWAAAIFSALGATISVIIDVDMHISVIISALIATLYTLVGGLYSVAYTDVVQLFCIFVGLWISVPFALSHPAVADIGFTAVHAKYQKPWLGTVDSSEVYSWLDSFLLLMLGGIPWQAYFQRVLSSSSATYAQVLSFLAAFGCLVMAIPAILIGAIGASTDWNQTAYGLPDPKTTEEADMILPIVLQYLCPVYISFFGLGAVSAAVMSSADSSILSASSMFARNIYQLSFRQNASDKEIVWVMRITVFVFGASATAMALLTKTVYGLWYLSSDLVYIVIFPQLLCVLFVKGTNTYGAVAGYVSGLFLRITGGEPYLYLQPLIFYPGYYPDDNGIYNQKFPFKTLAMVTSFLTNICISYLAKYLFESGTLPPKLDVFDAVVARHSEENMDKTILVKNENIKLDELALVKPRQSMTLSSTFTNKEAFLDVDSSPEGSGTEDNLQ

[11] = cytotoxicity in HEK-293T cells, dose response, cytotoxicity control for TCR NF-kB inhibitor project, luminescence, T-cell screen hits (AID 489026); format: functional, cell-based;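 further: cells exposed to compound about 14 hours before the viability readout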
[12] = molecular target: T9, Microphthalmia-associated transcription factor (Homo sapiens, UniProt O75030); assay: TRPM1 promoter luciferase signal decrease, dose response, MITF inhibitor project, cell-based, SK-MEL-5, cherry-picked, set 3 (AID 493073); format: functional
T9 sequence (O75030 whole entry): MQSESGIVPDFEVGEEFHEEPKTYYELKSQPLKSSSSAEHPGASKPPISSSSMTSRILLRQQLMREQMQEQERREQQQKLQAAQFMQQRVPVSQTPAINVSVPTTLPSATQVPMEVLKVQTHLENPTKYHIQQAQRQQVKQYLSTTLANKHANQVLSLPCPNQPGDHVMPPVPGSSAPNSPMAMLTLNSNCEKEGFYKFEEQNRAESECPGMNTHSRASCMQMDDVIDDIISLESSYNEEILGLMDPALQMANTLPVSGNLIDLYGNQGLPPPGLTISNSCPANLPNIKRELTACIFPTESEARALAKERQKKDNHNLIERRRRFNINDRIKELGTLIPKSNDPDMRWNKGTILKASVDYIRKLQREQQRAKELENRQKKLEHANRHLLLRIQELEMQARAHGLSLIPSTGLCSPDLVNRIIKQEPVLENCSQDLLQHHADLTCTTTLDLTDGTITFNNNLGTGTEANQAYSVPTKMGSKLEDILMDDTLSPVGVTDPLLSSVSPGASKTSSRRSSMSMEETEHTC

[13] = miR-122 activators in hepatoma reporter cells, dose response, cell-based, Huh7 psiCHECK-miR122, Renilla luciferase, cherry-picked (AID 651956); format: functional;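 further: huh7 hepatoma cells stably carrying a psiCHECK-2 miR-122 sensor plasmid; renilla luciferase signal reporting endogenous miR-122 activity after 48 h compound exposure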

With `CC(C)OC(=O)/C(C#N)=C/c1ccc(-c2ccc(SC(F)F)cc2)o1` the EC50 [1] was > 99 µM (inactive), the CC50 [2] was > 40 µM (active) and the EC50 [3] was 11.9 µM (active).
For `COC(=O)CCC(=O)OC1(C)C(=O)C2=CN(CC3CC3)C(c3ccc(OC)cc3)=CC2=C(Br)C1=O` (stereo not given), the IC50 (Genome polyprotein) was 30.5 µM (active) and the IC50 [4] was 31.7 µM (active).
For `COc1ccc(N/C=C\C(=O)c2ccc(C)cc2)cc1OC`, the EC50 [5] was > 300 µM (not active), the EC50 [1] was > 99 µM (inactive) and the EC50 [6] was > 300 µM (not active). For the same compound, the EC50 [3] was 25 µM (inactive).
For `O=C(NCCN1C(=O)C2C3C=CC(C3)C2C1=O)Nc1ccccc1` (stereo not given), the IC50 (Coagulation factor XII) was > 50 µM (inactive).
With `CN(C(=O)Oc1cccc2cccnc12)c1ccccc1` the IC50 (Coagulation factor XII) was > 50 µM (inactive).
For `C/C=C\C=C/C(=O)Nc1cccc(C2=NOC3(C2)C[C@@H](C(N)=O)N(C(=O)COc2ccc(Cl)cc2)C3)c1` (stereo not given in full), the IC50 [7] was 17.3 µM (active) and the IC50 [8] was 10.7 µM (active).
In the case of `CCN(CC)CCNC(=O)c1cn(CC)c2ccc(S(=O)(=O)N3CCc4ccccc4C3)cc2c1=O`, the AC50 [9] is reported as 2.88 µM (active) and the IC50 [10] is reported as 11.2 µM (active).
In the case of `COc1cc(-c2noc(C)c2C#Cc2ccsc2)cc(OC)c1OC`, the IC50 [11] is reported as > 80 µM (inactive).
In the case of `CCOC(=O)Cn1/c(=N/C(=O)c2ccc([N+](=O)[O-])s2)sc2ccccc21`, the AC50 [12] is reported as 3.5 µM (active), the EC50 [1] is reported as > 99 µM (inactive) and the EC50 [3] is reported as > 99 µM (inactive).
For `COc1cc(C(=O)N2Cc3cc4ccccc4nc3C2C)cc(OC)c1OC` (stereo not given), the AC50 [9] was 2.01 µM (active).
With `CC(=O)N(C[C@H]1N[C@H](CO)[C@@H]1c1ccc(-c2ccccc2)cc1)C(C)C` the AC50 [13] was 23.3 µM (active).
In the case of `COc1ccc(OCCNc2c([N+](=O)[O-])c(=O)oc3ccccc23)cc1`, the IC50 [4] is reported as 4.61 µM (active).
For `Cc1ccc(C(=O)Nc2cccc(C(=O)N/N=C/c3ccc(F)cc3)c2)cc1`, the EC50 [1] was 41.1 µM (inactive) and the EC50 [3] was > 99 µM (inactive).
For `COc1cc2c(cc1O)CC[C@@H]1[C@@H]2CC[C@]2(C)[C@@H](O)CC[C@@H]12` [2-METHOXYESTRADIOL], the IC50 [11] was > 80 µM (inactive).
